{
  "source": "paper PMC5540198",
  "about": "“A phase I trial of ganetespib in combination with paclitaxel and trastuzumab in patients with human epidermal growth factor receptor-2 (HER2)-positive metastatic breast cancer” (Breast Cancer Research : BCR, 2017)",
  "key": {"[1]": {"system": "patients with HER2-positive metastatic breast cancer", "assay": "Phase I dose-escalation trial: safety, DLT and RP2D of ganetespib with paclitaxel and trastuzumab", "type": "in vivo, human", "from_the_text": "Patients were eligible if they were aged ≥ 18 years, had locally advanced or metastatic HER2-positive disease (defined as FISH ratio ≥ 2.0 or immunohistochemistry (IHC) 3+), ECOG ≤ 2, measurable disease per RECIST 1.1 [23], and adequate end organ function (defined as hemoglobin ≥ 9 g/dl, absolute neutrophil count (ANC) ≥ 1.5 × 10^9/L, platelets ≥ 100 × 10^9/L, bilirubin ≤ 1.5 upper limit of normal (ULN), aspartate aminotransferase (AST) and alanine aminotransferase (ALT) ≤ 2.5 ULN, and serum creatinine ≤ 1.5 ULN). Patients must have received prior trastuzumab and those with estrogen receptor (ER)-positive disease must have received prior endocrine therapy. Any number of prior lines of chemotherapy in the metastatic setting was allowed. Progression on prior treatment with pertuzumab and T-DM1 was required (unless heavily pretreated prior to FDA approval of pertuzumab for first-line treatment of HER2-positive metastatic breast cancer (6/2012) and/or T-DM1 (2/2013)).\nPatients received intravenous infusions of trastuzumab and paclitaxel with ganetespib on days 1, 8, and 15 and of trastuzumab and paclitaxel on day 22 of a 28-day cycle. The sequence of administration was trastuzumab (2 mg/kg) followed by paclitaxel (80 mg/m^2) followed by ganetespib. If the patient’s last dose of trastuzumab was >21 days before enrollment, they received a loading dose of trastuzumab at 4 mg/kg over 90 minutes. Ganetespib was then administered intravenously over 60 minutes. The starting dose of ganetespib was 100 mg/m^2, and if there were no DLTs the next cohort would escalate to 150 mg/m^2. A further dose level of 125 mg/m^2 was incorporated in the circumstance of good tolerance of the 100 mg/m^2 but poor tolerance of the 150 mg/m^2 dose levels. There was no dose escalation for paclitaxel and trastuzumab. Therapy was continued until disease progression or unacceptable toxicity.\nPatients were examined and assessed for toxicities during and prior to each cycle. Toxicity was graded according to National Cancer Institute (NCI) CTCAE version 4.0 (http://ctep.cancer.gov/protocolDevelopment/electronic_applications/ctc.htm#ctc_40). Patients were evaluated for DLT during cycle 1. DLT was defined as any drug-related grade ≥ 4 nonhematologic adverse events (AEs) or any grade 3 nonhematologic AEs not improving to baseline or grade ≤ 1 by day 14; grade 4 neutropenia lasting ≥ 7 days, or febrile neutropenia, grade 4 thrombocytopenia, or any grade 3 thrombocytopenia that has not recovered to grade ≤ 2 by day 7; or any treatment-related toxicity prompting a dose reduction of ganetespib during the DLT observation period.\nPaclitaxel dose reductions were not permitted during the DLT observation period. For dosing beyond cycle 1, paclitaxel was held if patients experienced any other grade 3 or 4 toxicity thought to be related to paclitaxel until symptoms resolved to grade 1/baseline grade. One dose reduction for paclitaxel to 65 mg/m^2 was permitted."}, "[2]": {"system": "HER2-positive metastatic breast cancer", "assay": "Phase I trial: anti-tumor activity by RECIST 1.1", "type": "in vivo, human", "experimental": "The sequence of administration was trastuzumab (2 mg/kg) followed by paclitaxel (80 mg/m^2) followed by ganetespib. If the patient’s last dose of trastuzumab was >21 days before enrollment, they received a loading dose of trastuzumab at 4 mg/kg over 90 minutes. Ganetespib was then administered intravenously over 60 minutes. The starting dose of ganetespib was 100 mg/m^2, and if there were no DLTs the next cohort would escalate to 150 mg/m^2. A further dose level of 125 mg/m^2 was incorporated in the circumstance of good tolerance of the 100 mg/m^2 but poor tolerance of the 150 mg/m^2 dose levels. There was no dose escalation for paclitaxel and trastuzumab. Therapy was continued until disease progression or unacceptable toxicity. Patients were evaluated for response initially after two cycles and then every three cycles thereafter using the RECIST criteria. All patients with PR or complete response (CR) were required to have confirmation of response 4 weeks after the criteria for response were first met. The best overall response was defined as the best response recorded from the start of treatment until disease progression or withdrawal from the study. […] The CBR was defined as the proportion of patients whose best overall response, according to RECIST, was CR, PR, or SD lasting for at least 24 weeks."}, "[3]": {"system": "metastatic breast cancer", "parameters": "method as in PMID 24512858", "conditions": "cited from earlier work"}, "[4]": {"system": "HER2-positive metastatic breast cancer", "parameters": "method as in PMID 22781552", "conditions": "plus trastuzumab; cited from earlier work"}, "[5]": {"system": "trastuzumab-refractory HER2-positive metastatic breast cancer", "parameters": "method as in PMID 18048823, PMID 21558407", "conditions": "in combination with trastuzumab; cited from earlier work"}, "[6]": {"system": "HER2-positive breast cancer", "parameters": "method as in PMID 23580070", "conditions": "in combination with trastuzumab; cited from earlier work"}, "[7]": {"parameters": "method as in earlier work", "conditions": "PET agent labelled with ^124I; cited from earlier work"}, "[8]": {"assay": "Pharmacokinetics of paclitaxel in plasma, cycle 1 day 8 to day 9", "type": "in vivo, human", "experimental": "Blood samples for determination of plasma concentrations of paclitaxel were collected on cycle 1, day 8 through cycle 1, day 9 at the following time points after trastuzumab infusion and relative to the start of the paclitaxel infusion: 5 minutes prior to treatment, and 30 and 60 minutes (immediately prior to stopping the paclitaxel infusion pump and starting the ganetespib infusion) after start of paclitaxel infusion. Blood samples were also collected at the following time points after starting ganetespib infusion: 1.5, 2, 4, 7, 21, 24, 27, and 31 hours. Each blood sample (3–5 ml) was collected in sodium heparin tubes and transferred into two polypropylene tubes (1 ml each) and stored at –80 °C. PK were performed in collaboration with Synta Pharmaceuticals, Inc. PK parameters of paclitaxel (such as the area under the curve (AUC) and the maximum serum concentration (Cmax)) were examined descriptively to evaluate the effect of ganetespib on these measures."}, "[9]": {"system": "HER2-positive and ER-positive breast cancer", "parameters": "method as in PMID 18430202", "conditions": "intravenous, single agent; among 10 patients; cited from earlier work"}},
  "note": "Where two headings read alike, the source gives them in different places. Marks after values point to notes of the source that are not given here.",
  "data": [
    {"smiles": "CC(C)c1cc(-c2n[nH]c(=O)n2-c2ccc3c(ccn3C)c2)c(O)cc1O", "note": "[ganetespib, 5-(2,4-dihydroxy-5-(1-methylethyl)phenyl)-4-(1-methyl-1H-indol-5-yl)-2,4-dihydro-(1,2,4)triazol-3-one]", "values": [
      {"measurement": "recommended phase II dose (RP2D)", "setting": "[1]; in combination with weekly paclitaxel plus trastuzumab", "value": 150, "unit": "mg/m^2"},
      {"measurement": "anemia, grade 1/2, drug-related", "setting": "[1]; nine patients", "value": 44, "unit": "%"},
      {"measurement": "diarrhea, grade 1/2, drug-related", "setting": "[1]; nine patients", "value": 78, "unit": "%"},
      {"measurement": "elevated AST or ALT, grade 1/2, drug-related", "setting": "[1]; nine patients", "value": 32, "unit": "%"},
      {"measurement": "fatigue, grade 1/2, drug-related", "setting": "[1]; nine patients", "value": 67, "unit": "%"},
      {"measurement": "nausea, grade 1/2, drug-related", "setting": "[1]; nine patients", "value": 32, "unit": "%"},
      {"measurement": "rash, grade 1/2, drug-related", "setting": "[1]; nine patients", "value": 32, "unit": "%"},
      {"measurement": "grade 4 AEs related to ganetespib", "setting": "[1]; nine patients, CTCAE 4.0", "value": "no grade 4 AEs"},
      {"measurement": "patients with dose-limiting toxicities (DLTs)", "setting": "[1]; nine patients, cycle 1, 100 and 150 mg/m^2 cohorts", "value": "None"},
      {"measurement": "Grade 3 ALT, increased, N patients", "setting": "[1]; of nine patients", "value": 1},
      {"measurement": "Grade 3 phosphorus, decreased, N patients", "setting": "[1]; of nine patients", "value": 1},
      {"measurement": "Grade 3 pruritus, N patients", "setting": "[1]; of nine patients", "value": 1},
      {"measurement": "overall response rate (ORR), confirmed partial responses", "setting": "[2]; ganetespib 100 or 150 mg/m^2 days 1, 8, 15 with weekly paclitaxel 80 mg/m^2 and trastuzumab 2 mg/kg, 2/9 patients, both in 150 mg/m^2 cohort", "value": 22, "unit": "%"},
      {"measurement": "clinical benefit rate (CBR: CR, PR or SD at least 24 weeks)", "setting": "[2]; triplet regimen, 4/9 patients", "value": 44, "unit": "%"},
      {"measurement": "median progression-free survival", "setting": "[2]; triplet regimen, nine patients", "value": 20, "unit": "weeks"},
      {"measurement": "progression-free survival, range", "setting": "[2]; triplet regimen, nine patients", "value": "8–55 weeks"},
      {"measurement": "ORR", "setting": "[3]; single-agent ganetespib", "value": 15, "unit": "%"},
      {"measurement": "cases of SD in HER2-positive patients, number", "setting": "[3]; single-agent, HER2-positive metastatic breast cancer", "value": "six"},
      {"measurement": "confirmed PRs, number", "setting": "[3]; single-agent, HER2-positive, trastuzumab-refractory metastatic breast cancer", "value": "two"},
      {"measurement": "SDs, total number", "setting": "[3]; single-agent, six HER2-positive and one TNBC", "value": "seven"}
    ]},
    {"smiles": "CO[C@H]1/C=C\\C=C(/C)C(=O)NC2=CC(=O)C(NCCN(C)C)=C(C[C@@H](C)C[C@H](OC)[C@H](O)[C@@H](C)/C=C(\\C)[C@@H]1OC(N)=O)C2=O", "note": "[alvespimycin]", "values": [
      {"measurement": "partial response (PR), number of cases", "setting": "[4]", "value": "one"},
      {"measurement": "stable disease (SD) lasting >6 months, number of cases", "setting": "[4]", "value": "six"}
    ]},
    {"smiles": "C=CCNC1=C2C[C@@H](C)C[C@H](OC)[C@H](O)[C@@H](C)/C=C(\\C)[C@H](OC(N)=O)[C@@H](OC)/C=C\\C=C(/C)C(=O)NC(=CC1=O)C2=O", "note": "[tanespimycin]", "values": [
      {"measurement": "clinical benefit rate (CBR)", "setting": "[5]", "value": 59, "unit": "%"},
      {"measurement": "response rate", "setting": "[5]", "value": 22, "unit": "%"}
    ]},
    {"smiles": "C=CCNc1c(O)cc2c(O)c1C[C@@H](C)C[C@H](OC)[C@H](O)[C@@H](C)/C=C(\\C)[C@H](OC(N)=O)[C@@H](OC)/C=C\\C=C(/C)C(=O)N2", "note": "[retaspimycin]", "values": [
      {"measurement": "patients with stable disease", "setting": "[6]", "value": 62, "unit": "%"}
    ]},
    {"smiles": "CC(C)NCCCn1c(Sc2cc3c(cc2[124I])OCO3)nc2c(N)ncnc21", "note": "[^124I-PU-H71]", "values": [
      {"measurement": "half-life", "setting": "[7]", "value": 96.5, "unit": "h"}
    ]},
    {"smiles": "CC(=O)O[C@H]1C(=O)[C@@]2(C)[C@H]([C@H](OC(=O)c3ccccc3)[C@]3(O)C[C@H](OC(=O)[C@H](O)[C@@H](NC(=O)c4ccccc4)c4ccccc4)C(C)=C1C3(C)C)[C@]1(OC(C)=O)CO[C@@H]1C[C@@H]2O", "note": "[paclitaxel]", "values": [
      {"measurement": "Grade 3 blurred vision/grade 3 dry eyes (in same patient), N patients", "setting": "[1]; of nine patients, attributable to paclitaxel", "value": "1^a"},
      {"measurement": "Tmax", "setting": "[8]; human, in vivo, iv", "value": "1.0 ± 0.0", "unit": "h"},
      {"measurement": "half-life", "setting": "[8]; human, in vivo, iv", "value": "13.6 ± 3.3", "unit": "h"},
      {"measurement": "Tmax", "setting": "[8]; human, in vivo, iv, Tmax", "value": "0.8 ± 0.3", "unit": "h"},
      {"measurement": "Cmax", "setting": "[8]; human, in vivo, iv, paclitaxel 80 mg/m^2 i.v., ganetespib 100 mg/m^2, n=3", "value": "3340 ± 1270", "unit": "ng/mL"},
      {"measurement": "T1/2", "setting": "[8]; paclitaxel 80 mg/m^2 i.v., ganetespib 100 mg/m^2, n=3", "value": "12.9 ± 0.4", "unit": "h"}
    ]},
    {"smiles": "CCNC(=O)c1noc(-c2cc(C(C)C)c(O)cc2O)c1-c1ccc(CN2CCOCC2)cc1", "note": "[NVP-AUY922]", "values": [
      {"measurement": "confirmed PR by RECIST, number", "setting": "[9]", "value": "one"},
      {"measurement": "partial metabolic responses on FDG-PET, number", "setting": "[9]", "value": "two"}
    ]}
  ]
}
